Assay results published in ChEMBL document CHEMBL1201862, “PubChem BioAssay data set” (2004).
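Tested at 5 concentrations; 48 h exposure; 96-well plates; endpoints linearly interpolated, else capped at highest concentration. The concentration for 50% growth inhibition is given as GI50.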 Calls of active or inactive are those of the source. No stated cut-off is given here; in the data, active = GI50 up to about 1.1 µM and inactive = higher.

How the values were obtained:
Assay in all cases: DTP human tumour cell line panel, 48 h
MOLT-4 = tested on: MOLT-4
DMS-273 = tested on: DMS-273
CCRF-CEM = tested on: CCRF-CEM
K562 = tested on: K562
IGROV-1 = tested on: IGROV-1
HCC 2998 = tested on: HCC 2998
ACHN = tested on: ACHN
OVCAR-4 = tested on: OVCAR-4
CAKI-1 = tested on: CAKI-1
SF-295 = tested on: SF-295
OVCAR-5 = tested on: OVCAR-5
RPMI-8226 = tested on: RPMI-8226
A498 = tested on: A498
HOP-92 = tested on: HOP-92
UACC-62 = tested on: UACC-62
SK-MEL-28 = tested on: SK-MEL-28
LOX IMVI = tested on: LOX IMVI
EKVX = tested on: EKVX
SNB-19 = tested on: SNB-19
OVCAR-8 = tested on: OVCAR-8
DLD-1 = tested on: DLD-1
A549 = tested on: A549
LXFL 529 = tested on: LXFL 529
TK-10 = tested on: TK-10
HOP-62 = tested on: HOP-62
SNB-78 = tested on: SNB-78
KM-20L2 = tested on: KM-20L2
SR = tested on: SR
SN12C = tested on: SN12C
SK-OV-3 = tested on: SK-OV-3
SK-MEL-5 = tested on: SK-MEL-5
HT-29 = tested on: HT-29
U-251 = tested on: U-251
SK-MEL-2 = tested on: SK-MEL-2
HCT-15 = tested on: HCT-15
RXF 393 = tested on: RXF 393
SNB-75 = tested on: SNB-75
HL-60 = tested on: HL-60
UO-31 = tested on: UO-31
NCI-H522 = tested on: NCI-H522
NCI-H23 = tested on: NCI-H23
NCI-H226 = tested on: NCI-H226
HCT-116 = tested on: HCT-116
NCI-H460 = tested on: NCI-H460
UACC-257 = tested on: UACC-257
M14 = tested on: M14
M19-MEL = tested on: M19-MEL
SF-539 = tested on: SF-539
SW-620 = tested on: SW-620
SF-268 = tested on: SF-268
KM12 = tested on: KM12
COLO 205 = tested on: COLO 205
XF498 = tested on: XF498
786-0 = tested on: 786-0
OVCAR-3 = tested on: OVCAR-3
HOP-18 = tested on: HOP-18
DMS-114 = tested on: DMS-114
Malme-3M = tested on: Malme-3M

O=C(Nc1cccc([N+](=O)[O-])c1)C(=O)C(C(=O)c1ccccc1F)C1OC(=O)C2C=CC=CC21 (configuration not stated)
GI50 (MOLT-4): 32 µM (inactive) | GI50 (DMS-273): 31.7 µM (inactive) | GI50 (CCRF-CEM): 27.3 µM (inactive) | GI50 (K562): 31.8 µM (inactive) | GI50 (IGROV-1): 53.8 µM (inactive) | GI50 (HCC 2998): 36.1 µM (inactive) | GI50 (ACHN): 49.4 µM (inactive) | GI50 (OVCAR-4): 47.2 µM (inactive) | GI50 (CAKI-1): 59.2 µM (inactive) | GI50 (SF-295): 43.9 µM (inactive) | GI50 (OVCAR-5): 81.7 µM (inactive) | GI50 (RPMI-8226): 23.8 µM (inactive) | GI50 (A498): 96.6 µM (inactive) | GI50 (HOP-92): > 100 µM (inactive) | GI50 (UACC-62): 28 µM (inactive) | GI50 (SK-MEL-28): 30.3 µM (inactive) | GI50 (LOX IMVI): 21.1 µM (inactive) | GI50 (EKVX): 41 µM (inactive) | GI50 (SNB-19): 29.9 µM (inactive) | GI50 (OVCAR-8): 30.3 µM (inactive) | GI50 (DLD-1): 43.4 µM (inactive) | GI50 (A549): 37.5 µM (inactive) | GI50 (LXFL 529): 30.5 µM (inactive) | GI50 (TK-10): > 100 µM (inactive) | GI50 (HOP-62): 50.9 µM (inactive) | GI50 (SNB-78): 36.6 µM (inactive) | GI50 (KM-20L2): 41.2 µM (inactive) | GI50 (SR): 7.06 µM (inactive) | GI50 (SN12C): 30.1 µM (inactive) | GI50 (SK-OV-3): 41.3 µM (inactive) | GI50 (SK-MEL-5): 73.1 µM (inactive) | GI50 (HT-29): 41.6 µM (inactive) | GI50 (U-251): 22.3 µM (inactive) | GI50 (SK-MEL-2): 30.3 µM (inactive) | GI50 (HCT-15): 27.5 µM | GI50 (RXF 393): 18.5 µM (inactive) | GI50 (SNB-75): 28.7 µM (inactive) | GI50 (HL-60): 20 µM (inactive) | GI50 (UO-31): 44.1 µM (inactive) | GI50 (NCI-H522): 18.9 µM (inactive) | GI50 (NCI-H23): 25.1 µM (inactive) | GI50 (NCI-H226): 13.4 µM (inactive) | GI50 (HCT-116): 19.4 µM (inactive) | GI50 (NCI-H460): 40.9 µM (inactive) | GI50 (UACC-257): 82 µM (inactive) | GI50 (M14): 38 µM (inactive) | GI50 (M19-MEL): 31.6 µM (inactive) | GI50 (SF-539): 24 µM (inactive) | GI50 (SW-620): 52.1 µM (inactive) | GI50 (SF-268): 19.7 µM (inactive) | GI50 (KM12): 27.3 µM (inactive) | GI50 (COLO 205): 35.2 µM (inactive) | GI50 (XF498): 40.3 µM (inactive)

O=C(NC12CC3CC(CC(C3)C1)C2)C(=O)c1c[nH]c2ccc(Br)cc12
GI50 (MOLT-4): 5.41 µM (inactive) | GI50 (DMS-273): 4.54 µM (inactive) | GI50 (CCRF-CEM): 3.86 µM (inactive) | GI50 (K562): 8.39 µM (inactive) | GI50 (IGROV-1): 45.5 µM (inactive) | GI50 (HCC 2998): 22.6 µM (inactive) | GI50 (786-0): 7.13 µM (inactive) | GI50 (ACHN): 15.6 µM (inactive) | GI50 (OVCAR-4): 14 µM (inactive) | GI50 (CAKI-1): 39.3 µM (inactive) | GI50 (SF-295): 4.18 µM (inactive) | GI50 (OVCAR-5): 36.9 µM (inactive) | GI50 (RPMI-8226): 6.67 µM (inactive) | GI50 (HOP-92): 20.8 µM (inactive) | GI50 (UACC-62): 23.5 µM (inactive) | GI50 (SK-MEL-28): 43.1 µM (inactive) | GI50 (LOX IMVI): 5.25 µM (inactive) | GI50 (EKVX): 73.1 µM (inactive) | GI50 (SNB-19): 33.5 µM (inactive) | GI50 (OVCAR-8): 18.1 µM (inactive) | GI50 (DLD-1): 13.4 µM (inactive) | GI50 (A549): 14.4 µM (inactive) | GI50 (OVCAR-3): 11.2 µM (inactive) | GI50 (LXFL 529): 15.5 µM (inactive) | GI50 (TK-10): 28.8 µM (inactive) | GI50 (HOP-62): 7.06 µM (inactive) | GI50 (SNB-78): 35.7 µM (inactive) | GI50 (KM-20L2): 4.54 µM (inactive) | GI50 (SR): 10 µM (inactive) | GI50 (HOP-18): 19.1 µM (inactive) | GI50 (SN12C): 18.5 µM (inactive) | GI50 (SK-OV-3): 25.9 µM (inactive) | GI50 (SK-MEL-5): 41 µM (inactive) | GI50 (HT-29): 3.71 µM (inactive) | GI50 (U-251): 12.1 µM (inactive) | GI50 (SK-MEL-2): 56.9 µM (inactive) | GI50 (HCT-15): 5.79 µM | GI50 (RXF 393): 2.43 µM (inactive) | GI50 (SNB-75): 12.6 µM (inactive) | GI50 (HL-60): 5.02 µM (inactive) | GI50 (UO-31): 26.2 µM (inactive) | GI50 (NCI-H522): 56 µM (inactive) | GI50 (NCI-H23): 33.1 µM (inactive) | GI50 (DMS-114): 65.9 µM (inactive) | GI50 (Malme-3M): 17.9 µM (inactive) | GI50 (NCI-H226): 20.2 µM (inactive) | GI50 (HCT-116): 14.6 µM (inactive) | GI50 (NCI-H460): 10.2 µM (inactive) | GI50 (UACC-257): 43.4 µM (inactive) | GI50 (M14): 7.05 µM (inactive) | GI50 (SF-539): 19 µM (inactive) | GI50 (SW-620): 25 µM (inactive) | GI50 (SF-268): 9.59 µM (inactive) | GI50 (KM12): 7.08 µM (inactive) | GI50 (COLO 205): 18.6 µM (inactive)

O=C(c1ccccn1)c1nc(-c2ccc(Cl)c(Cl)c2)nc2ccc(Cl)cc12
GI50 (MOLT-4): 58.6 µM (inactive) | GI50 (DMS-273): 32 µM (inactive) | GI50 (CCRF-CEM): 71.1 µM (inactive) | GI50 (K562): 92 µM (inactive) | GI50 (IGROV-1): 35 µM (inactive) | GI50 (HCC 2998): > 100 µM (inactive) | GI50 (786-0): 44.6 µM (inactive) | GI50 (ACHN): 44.3 µM (inactive) | GI50 (OVCAR-4): 40.2 µM (inactive) | GI50 (CAKI-1): 56.6 µM (inactive) | GI50 (SF-295): 31.1 µM (inactive) | GI50 (OVCAR-5): > 100 µM (inactive) | GI50 (RPMI-8226): > 100 µM (inactive) | GI50 (A498): 45.1 µM (inactive) | GI50 (UACC-62): 39.2 µM (inactive) | GI50 (SK-MEL-28): > 100 µM (inactive) | GI50 (EKVX): 74.5 µM (inactive) | GI50 (OVCAR-8): > 100 µM (inactive) | GI50 (DLD-1): 99.3 µM (inactive) | GI50 (A549): 41.6 µM (inactive) | GI50 (OVCAR-3): 42.7 µM (inactive) | GI50 (LXFL 529): 46.6 µM (inactive) | GI50 (TK-10): 67 µM (inactive) | GI50 (HOP-62): 21.3 µM (inactive) | GI50 (SNB-78): > 100 µM (inactive) | GI50 (KM-20L2): > 100 µM (inactive) | GI50 (SK-OV-3): 36.4 µM (inactive) | GI50 (SK-MEL-5): 51.9 µM (inactive) | GI50 (HT-29): > 100 µM (inactive) | GI50 (U-251): 44.1 µM (inactive) | GI50 (SK-MEL-2): 34.3 µM (inactive) | GI50 (HCT-15): 39.2 µM | GI50 (RXF 393): 18.7 µM (inactive) | GI50 (SNB-75): 12.3 µM (inactive) | GI50 (HL-60): > 100 µM (inactive) | GI50 (UO-31): 56.9 µM (inactive) | GI50 (NCI-H23): 20.3 µM (inactive) | GI50 (DMS-114): 64.6 µM (inactive) | GI50 (Malme-3M): 32.3 µM (inactive) | GI50 (NCI-H226): 23.1 µM (inactive) | GI50 (HCT-116): 15.5 µM (inactive) | GI50 (NCI-H460): 50.4 µM (inactive) | GI50 (UACC-257): > 100 µM (inactive) | GI50 (M14): > 100 µM (inactive) | GI50 (M19-MEL): 81.1 µM (inactive) | GI50 (SF-539): 18.1 µM (inactive) | GI50 (SW-620): > 100 µM (inactive) | GI50 (KM12): > 100 µM (inactive) | GI50 (XF498): 20.8 µM (inactive)
